{"source": "patent US5424456A", "about": "“N-arylalkylderivatives of 2-aminomethyl-2,3-dihydro-1,4-benzodioxine and the process of preparation thereof” (Vyzkumny Ustav Pro Farmacii A Biochemii s.p., priority 1991, dated 1995)", "key": {"[1]": {"settings": "compared to Verapamil; cited from earlier work"}, "calcium channel": {"target": "T1, calcium channel (Rattus norvegicus, UniProt P22002)", "T1 construct": "helically cut rat aortic strip; from tissue; host or cells: rat aorta (helically cut strip)", "T1 sequence (P22002 whole entry)": "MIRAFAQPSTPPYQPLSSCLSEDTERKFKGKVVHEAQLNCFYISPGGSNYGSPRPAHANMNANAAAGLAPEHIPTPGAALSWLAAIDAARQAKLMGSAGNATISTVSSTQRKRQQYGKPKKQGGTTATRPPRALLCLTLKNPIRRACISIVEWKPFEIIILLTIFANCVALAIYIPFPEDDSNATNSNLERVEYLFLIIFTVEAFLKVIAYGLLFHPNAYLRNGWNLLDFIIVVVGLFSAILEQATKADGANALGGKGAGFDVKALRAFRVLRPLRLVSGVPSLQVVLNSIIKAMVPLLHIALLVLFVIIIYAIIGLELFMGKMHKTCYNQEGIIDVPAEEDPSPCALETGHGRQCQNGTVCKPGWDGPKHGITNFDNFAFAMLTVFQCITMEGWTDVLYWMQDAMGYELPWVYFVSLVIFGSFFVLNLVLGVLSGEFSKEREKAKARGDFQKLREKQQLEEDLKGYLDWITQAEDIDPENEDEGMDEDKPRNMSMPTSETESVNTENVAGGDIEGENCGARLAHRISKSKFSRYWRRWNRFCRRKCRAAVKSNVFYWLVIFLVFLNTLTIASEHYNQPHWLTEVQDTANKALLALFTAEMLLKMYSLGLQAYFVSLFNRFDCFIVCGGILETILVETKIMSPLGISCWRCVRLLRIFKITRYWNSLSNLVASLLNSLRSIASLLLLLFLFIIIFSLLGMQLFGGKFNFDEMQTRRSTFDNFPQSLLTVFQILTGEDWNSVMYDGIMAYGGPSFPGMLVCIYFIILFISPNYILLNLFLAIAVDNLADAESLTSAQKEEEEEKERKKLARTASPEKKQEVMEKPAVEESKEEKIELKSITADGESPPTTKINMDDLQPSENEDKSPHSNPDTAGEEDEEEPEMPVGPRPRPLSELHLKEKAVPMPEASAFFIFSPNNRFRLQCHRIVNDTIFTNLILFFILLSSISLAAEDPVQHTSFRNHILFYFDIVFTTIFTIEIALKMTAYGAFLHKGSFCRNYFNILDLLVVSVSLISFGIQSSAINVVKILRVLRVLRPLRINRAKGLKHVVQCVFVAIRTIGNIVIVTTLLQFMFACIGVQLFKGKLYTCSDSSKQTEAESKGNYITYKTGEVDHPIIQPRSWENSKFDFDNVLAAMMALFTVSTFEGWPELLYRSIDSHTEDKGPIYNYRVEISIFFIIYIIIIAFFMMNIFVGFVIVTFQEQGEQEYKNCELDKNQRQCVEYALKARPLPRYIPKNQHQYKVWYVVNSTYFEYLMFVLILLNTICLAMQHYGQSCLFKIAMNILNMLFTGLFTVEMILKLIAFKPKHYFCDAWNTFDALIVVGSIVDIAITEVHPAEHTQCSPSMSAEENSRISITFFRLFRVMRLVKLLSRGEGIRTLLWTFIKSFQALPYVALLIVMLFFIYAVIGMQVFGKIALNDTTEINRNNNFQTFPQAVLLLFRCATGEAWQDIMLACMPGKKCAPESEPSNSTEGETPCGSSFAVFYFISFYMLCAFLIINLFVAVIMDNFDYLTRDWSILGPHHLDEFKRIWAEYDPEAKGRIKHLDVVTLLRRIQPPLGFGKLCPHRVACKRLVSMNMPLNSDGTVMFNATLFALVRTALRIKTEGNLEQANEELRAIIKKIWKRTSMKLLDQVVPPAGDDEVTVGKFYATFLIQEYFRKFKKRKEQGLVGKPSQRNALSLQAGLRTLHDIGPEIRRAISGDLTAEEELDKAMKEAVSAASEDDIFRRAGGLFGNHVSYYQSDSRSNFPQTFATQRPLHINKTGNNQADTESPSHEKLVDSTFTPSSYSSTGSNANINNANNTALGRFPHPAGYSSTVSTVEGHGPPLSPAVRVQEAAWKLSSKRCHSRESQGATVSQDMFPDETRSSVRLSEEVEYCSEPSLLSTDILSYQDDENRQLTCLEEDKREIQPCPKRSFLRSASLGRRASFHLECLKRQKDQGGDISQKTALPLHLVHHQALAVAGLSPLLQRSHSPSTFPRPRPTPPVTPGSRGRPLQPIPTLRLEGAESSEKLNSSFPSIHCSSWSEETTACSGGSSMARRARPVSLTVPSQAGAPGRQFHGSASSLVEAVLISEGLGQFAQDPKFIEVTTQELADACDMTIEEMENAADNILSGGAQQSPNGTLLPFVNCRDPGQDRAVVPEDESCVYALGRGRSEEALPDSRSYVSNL", "T1 sequence (P54290 25-1091 partner)": "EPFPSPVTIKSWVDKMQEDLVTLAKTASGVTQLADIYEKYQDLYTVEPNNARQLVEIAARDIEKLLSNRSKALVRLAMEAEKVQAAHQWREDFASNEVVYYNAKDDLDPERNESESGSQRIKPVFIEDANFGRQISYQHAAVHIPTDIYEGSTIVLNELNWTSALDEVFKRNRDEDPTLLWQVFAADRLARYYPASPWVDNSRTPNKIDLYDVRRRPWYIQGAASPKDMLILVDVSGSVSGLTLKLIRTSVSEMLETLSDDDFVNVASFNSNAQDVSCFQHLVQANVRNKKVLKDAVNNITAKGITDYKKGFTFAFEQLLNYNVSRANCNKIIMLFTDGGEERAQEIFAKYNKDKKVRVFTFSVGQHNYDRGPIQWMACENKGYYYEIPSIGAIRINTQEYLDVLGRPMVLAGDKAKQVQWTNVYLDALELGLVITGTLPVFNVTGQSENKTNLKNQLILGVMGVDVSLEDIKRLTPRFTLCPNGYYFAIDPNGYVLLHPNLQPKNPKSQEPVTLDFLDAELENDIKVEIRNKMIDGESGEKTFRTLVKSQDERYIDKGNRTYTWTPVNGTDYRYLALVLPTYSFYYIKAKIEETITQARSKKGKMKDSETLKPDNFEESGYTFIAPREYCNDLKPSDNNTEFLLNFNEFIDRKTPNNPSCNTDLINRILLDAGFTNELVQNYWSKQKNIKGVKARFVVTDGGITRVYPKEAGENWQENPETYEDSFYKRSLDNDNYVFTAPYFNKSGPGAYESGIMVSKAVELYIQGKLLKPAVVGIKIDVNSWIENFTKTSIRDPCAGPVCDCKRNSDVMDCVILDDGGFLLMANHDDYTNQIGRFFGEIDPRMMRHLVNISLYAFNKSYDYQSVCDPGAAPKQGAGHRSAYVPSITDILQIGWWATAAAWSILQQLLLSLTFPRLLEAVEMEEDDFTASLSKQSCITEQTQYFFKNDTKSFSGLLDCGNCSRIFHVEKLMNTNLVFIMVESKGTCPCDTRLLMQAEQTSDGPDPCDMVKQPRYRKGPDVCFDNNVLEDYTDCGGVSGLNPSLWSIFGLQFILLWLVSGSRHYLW", "assay": "Calcium channel blocking activity, K+ depolarization-induced contraction of helically cut rat aortic strip", "settings": "Krebs-Henselheit solution, 37° C., cumulative doses, read-out: IC50 (50% decrease of contraction of the aortic strip)", "procedure": "The calcium channel blocking activity of the compounds was tested using a helically cut rat aortic strip in Krebs-Henselheit solution at 37° C., bubbled with a mixture of 95% O2 and 5% CO2. The isometrically registered contractions were induced by K^(+). depolarization. The test compounds were applied in a cumulative doses and the vasodilating activity thereof was expressed in calculated concentration of the test compound, causing 50% decrease of contraction of the aortic strip (IC50)."}, "blood pressure [2]": {"system": "blood pressure", "assay": "Hypotensive activity, pentobarbital anaesthesized dogs", "format": "in vivo, dog", "settings": "i.v.", "source_text": "(§1) b) The blood pressure of pentobarbital anaesthesized dogs was registered invasively in arteria femoralis. The average decrease in systolic (SBP) arid diastolic (DBP) blood pressure expressed in per cents of the starting blood pressure level after intravenous and oral administration is shown in Tables 5 and 6."}, "blood pressure [3]": {"system": "blood pressure", "assay": "Hypotensive activity, pentobarbital anaesthesized rabbits", "format": "in vivo, rabbit", "settings": "i.v.", "source_text": "as §1, with “a)” for “b)”, “rabbits” for “dogs”, “and” for “arid”, “3” for “5”, “4.” for “6.”"}, "α-adrenergic": {"target": "T2, α-adrenergic (Rattus norvegicus, UniProt P23944)", "T2 construct": "helically cut rat aortic strip; from tissue; host or cells: rat aorta (helically cut strip)", "T2 sequence (P23944 1-561)": "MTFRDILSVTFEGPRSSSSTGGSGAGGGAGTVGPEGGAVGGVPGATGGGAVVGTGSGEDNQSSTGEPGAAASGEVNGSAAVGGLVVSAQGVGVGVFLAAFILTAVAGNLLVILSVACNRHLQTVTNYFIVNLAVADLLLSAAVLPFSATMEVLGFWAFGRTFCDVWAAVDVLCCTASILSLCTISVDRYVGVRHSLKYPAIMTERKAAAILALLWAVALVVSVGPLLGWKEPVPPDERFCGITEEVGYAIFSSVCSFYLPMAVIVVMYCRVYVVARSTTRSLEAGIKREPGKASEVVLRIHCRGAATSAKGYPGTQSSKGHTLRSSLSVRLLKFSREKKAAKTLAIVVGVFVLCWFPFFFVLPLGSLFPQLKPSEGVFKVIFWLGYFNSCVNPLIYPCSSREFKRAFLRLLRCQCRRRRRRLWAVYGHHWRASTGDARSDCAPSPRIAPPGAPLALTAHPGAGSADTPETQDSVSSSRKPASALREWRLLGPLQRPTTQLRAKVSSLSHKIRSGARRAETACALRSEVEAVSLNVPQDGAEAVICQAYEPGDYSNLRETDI", "assay": "α-adrenergic blocking activity, norepinephrine-induced contraction of helically cut rat aortic strip", "settings": "37° C., cumulative doses, read-out: IC50 (concentration causing 50% relaxation)", "procedure": "a) The α-adrenergic blocking activity of the compounds was tested using a helically cut rat aortic strip in a Krebs-Henselheit solution at 37° C., bubbled with a mixture of 95% O2 and 5% CO2. Norepinephrine induced contractions were detected isometrically. The compounds were added in cumulative doses and the relaxing activity was expressed in per cents of the maximum norepinephrine contraction."}, "α-adrenergic receptors": {"system": "α-adrenergic receptors", "settings": "cited from earlier work"}, "[4]": {"settings": "0.4 mg/kg, value 1 of 5 (heads 5/30/60/180 min; probably 1 min)"}, "[5]": {"settings": "0.4 mg/kg, value 2 of 5 (heads 5/30/60/180 min; probably 5 min)"}, "[6]": {"settings": "0.4 mg/kg, value 3 of 5 (heads 5/30/60/180 min; probably 30 min)"}, "[7]": {"settings": "0.4 mg/kg, value 4 of 5 (heads 5/30/60/180 min; probably 60 min)"}, "[8]": {"settings": "0.4 mg/kg, value 5 of 5 (heads 5/30/60/180 min; probably 180 min)"}, "[9]": {"settings": "4.0 mg/kg, value 1 of 5 (heads 5/30/60/180 min; probably 1 min)"}, "[10]": {"settings": "4.0 mg/kg, value 2 of 5 (heads 5/30/60/180 min; probably 5 min)"}, "[11]": {"settings": "4.0 mg/kg, value 3 of 5 (heads 5/30/60/180 min; probably 30 min)"}, "[12]": {"settings": "4.0 mg/kg, value 4 of 5 (heads 5/30/60/180 min; probably 60 min)"}, "[13]": {"settings": "4.0 mg/kg, value 5 of 5 (heads 5/30/60/180 min; probably 180 min)"}}, "data": [{"compound": "COc1ccc(CCN(C)CCCC(C#N)(c2ccccc2C)C(C)C)cc1OC", "note": "(centres unmarked) [Mepamil]", "values": [{"measurement": "negative inotropic activity", "setting": "[1]", "value": "lower negative inotropic activity"}]}, {"compound": "CC(C)C(C#N)(CCCNCC1COc2ccccc2O1)c1ccccc1", "note": "(racemic) [VUFB 18087, 5-(2,3-dihydro-1,4-benzodioxin-2-ylmethylamino)-2-phenyl-2-isopropyl valeronitrile]", "values": [{"measurement": "IC50", "setting": "calcium channel", "value": 8.5, "unit": "µM"}, {"measurement": "decrease in diastolic blood pressure (DBP)", "setting": "blood pressure [2]; [4]", "value": -37, "unit": "per cents"}, {"measurement": "decrease in systolic blood pressure (SBP)", "setting": "blood pressure [2]; [4]", "value": -33, "unit": "per cents"}, {"measurement": "decrease in diastolic blood pressure (DBP)", "setting": "blood pressure [2]; [5]", "value": -27, "unit": "per cents"}, {"measurement": "decrease in systolic blood pressure (SBP)", "setting": "blood pressure [2]; [5]", "value": -29, "unit": "per cents"}, {"measurement": "decrease in diastolic blood pressure (DBP)", "setting": "blood pressure [2]; [6]", "value": -27, "unit": "per cents"}, {"measurement": "decrease in systolic blood pressure (SBP)", "setting": "blood pressure [2]; [6]", "value": -29, "unit": "per cents"}, {"measurement": "decrease in diastolic blood pressure (DBP)", "setting": "blood pressure [2]; [7]", "value": -13, "unit": "per cents"}, {"measurement": "decrease in systolic blood pressure (SBP)", "setting": "blood pressure [2]; [7]", "value": -19, "unit": "per cents"}, {"measurement": "decrease in diastolic blood pressure (DBP)", "setting": "blood pressure [2]; [8]", "value": -13, "unit": "per cents"}, {"measurement": "decrease in systolic blood pressure (SBP)", "setting": "blood pressure [2]; [8]", "value": -4, "unit": "per cents"}, {"measurement": "decrease in diastolic blood pressure (DBP)", "setting": "blood pressure [2]; [9]", "value": -62, "unit": "per cents"}, {"measurement": "decrease in systolic blood pressure (SBP)", "setting": "blood pressure [2]; [9]", "value": -49, "unit": "per cents"}, {"measurement": "decrease in diastolic blood pressure (DBP)", "setting": "blood pressure [2]; [10]", "value": -31, "unit": "per cents"}, {"measurement": "decrease in systolic blood pressure (SBP)", "setting": "blood pressure [2]; [10]", "value": -32, "unit": "per cents"}, {"measurement": "decrease in diastolic blood pressure (DBP)", "setting": "blood pressure [2]; [11]", "value": -31, "unit": "per cents"}, {"measurement": "decrease in systolic blood pressure (SBP)", "setting": "blood pressure [2]; [11]", "value": -31, "unit": "per cents"}, {"measurement": "decrease in diastolic blood pressure (DBP)", "setting": "blood pressure [2]; [12]", "value": -26, "unit": "per cents"}, {"measurement": "decrease in systolic blood pressure (SBP)", "setting": "blood pressure [2]; [12]", "value": -27, "unit": "per cents"}, {"measurement": "decrease in diastolic blood pressure (DBP)", "setting": "blood pressure [2]; [13]", "value": -26, "unit": "per cents"}, {"measurement": "decrease in systolic blood pressure (SBP)", "setting": "blood pressure [2]; [13]", "value": -22, "unit": "per cents"}, {"measurement": "decrease in diastolic blood pressure (DBP)", "setting": "blood pressure [3]; 0.4 mg/kg, 1 min", "value": -32, "unit": "per cents"}, {"measurement": "decrease in systolic blood pressure (SBP)", "setting": "blood pressure [3]; 0.4 mg/kg, 1 min", "value": -10, "unit": "per cents"}, {"measurement": "decrease in diastolic blood pressure (DBP)", "setting": "blood pressure [3]; 0.4 mg/kg, 5 min", "value": -16, "unit": "per cents"}, {"measurement": "decrease in systolic blood pressure (SBP)", "setting": "blood pressure [3]; 0.4 mg/kg, 5 min", "value": -19, "unit": "per cents"}, {"measurement": "decrease in diastolic blood pressure (DBP)", "setting": "blood pressure [3]; 0.4 mg/kg, 30 min", "value": -18, "unit": "per cents"}, {"measurement": "decrease in systolic blood pressure (SBP)", "setting": "blood pressure [3]; 0.4 mg/kg, 30 min", "value": -17, "unit": "per cents"}, {"measurement": "decrease in diastolic blood pressure (DBP)", "setting": "blood pressure [3]; 0.4 mg/kg, 60 min", "value": -16, "unit": "per cents"}, {"measurement": "decrease in systolic blood pressure (SBP)", "setting": "blood pressure [3]; 0.4 mg/kg, 60 min", "value": -17, "unit": "per cents"}, {"measurement": "decrease in diastolic blood pressure (DBP)", "setting": "blood pressure [3]; 0.4 mg/kg, 180 min", "value": -8, "unit": "per cents"}, {"measurement": "decrease in systolic blood pressure (SBP)", "setting": "blood pressure [3]; 0.4 mg/kg, 180 min", "value": -14, "unit": "per cents"}, {"measurement": "decrease in diastolic blood pressure (DBP)", "setting": "blood pressure [3]; 4.0 mg/kg, 1 min", "value": -58, "unit": "per cents"}, {"measurement": "decrease in systolic blood pressure (SBP)", "setting": "blood pressure [3]; 4.0 mg/kg, 1 min", "value": -45, "unit": "per cents"}, {"measurement": "decrease in diastolic blood pressure (DBP)", "setting": "blood pressure [3]; 4.0 mg/kg, 5 min", "value": -43, "unit": "per cents"}, {"measurement": "decrease in systolic blood pressure (SBP)", "setting": "blood pressure [3]; 4.0 mg/kg, 5 min", "value": -45, "unit": "per cents"}, {"measurement": "decrease in diastolic blood pressure (DBP)", "setting": "blood pressure [3]; 4.0 mg/kg, 30 min", "value": -29, "unit": "per cents"}, {"measurement": "decrease in systolic blood pressure (SBP)", "setting": "blood pressure [3]; 4.0 mg/kg, 30 min", "value": -30, "unit": "per cents"}, {"measurement": "decrease in diastolic blood pressure (DBP)", "setting": "blood pressure [3]; 4.0 mg/kg, 60 min", "value": -29, "unit": "per cents"}, {"measurement": "decrease in systolic blood pressure (SBP)", "setting": "blood pressure [3]; 4.0 mg/kg, 60 min", "value": -31, "unit": "per cents"}, {"measurement": "decrease in diastolic blood pressure (DBP)", "setting": "blood pressure [3]; 4.0 mg/kg, 180 min", "value": -32, "unit": "per cents"}, {"measurement": "decrease in systolic blood pressure (SBP)", "setting": "blood pressure [3]; 4.0 mg/kg, 180 min", "value": -28, "unit": "per cents"}, {"measurement": "IC50", "setting": "α-adrenergic", "value": 76, "unit": "µM"}]}, {"compound": "c1ccc2c(c1)OCC(CN1CCCCC1)O2", "note": "(centres unmarked) [Piperoxan]", "values": [{"measurement": "α-adrenergic receptor blocking", "setting": "α-adrenergic receptors", "value": "block the α-adrenergic receptors in a competitive manner"}]}]}
